Reference: patent US8691838B2, “Heterocycles as protein kinase inhibitors” (Amgen Inc., priority 2008, dated 2014)

Target: c-Met (Homo sapiens, UniProt P08581)
Assay: c-Met receptor assay (HTRF kinase assay with GST-cMet (P) enzyme, gastrin substrate)
Description: A Kinase reaction Buffer was prepared as follows: 60 mM HEPES pH 7.4; 50 mM NaCl; 20 mM MgCl2; 5 mM MnCl2. When the assay was carried out, the following ingredients were freshly added: 2 mM DTT; 0.05% BSA; 0.1 mM Na3OV4.
Then incubated the plate at RT for 30 min.
KM ATP and KM gastrin for various enzymes were determined by HTRF/^33P labeling and HTRF methods.

c-Met, sequence (P08581 1058-1365): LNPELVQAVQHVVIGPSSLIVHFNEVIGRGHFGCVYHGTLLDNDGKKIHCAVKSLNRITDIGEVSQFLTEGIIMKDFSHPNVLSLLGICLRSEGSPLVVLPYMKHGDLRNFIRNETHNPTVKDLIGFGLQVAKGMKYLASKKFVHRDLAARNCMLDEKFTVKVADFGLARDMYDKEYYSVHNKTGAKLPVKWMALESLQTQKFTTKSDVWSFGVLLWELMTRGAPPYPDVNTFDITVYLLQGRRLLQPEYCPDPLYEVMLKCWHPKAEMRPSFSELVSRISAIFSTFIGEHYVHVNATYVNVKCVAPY

Ki | SMILES
1090 nM | C[C@@H](c1ccc2ncccc2c1)n1nnc2ccn(Cc3ccccc3)c(=O)c21 [Example 31, (S)-5-benzyl-3-(1-(quinolin-6-yl)ethyl)-3H-[1,2,3]triazolo[4,5-c]pyridin-4(5H)-one]
12 nM | Cc1cc(N2CCc3nnn(Cc4ccc5ncccc5c4)c3C2=O)sn1 [Example 2, 5-(3-methylisothiazol-5-yl)-3-(quinolin-6-ylmethyl)-6,7-dihydro-3H-[1,2,3]triazolo[4,5-c]pyridin-4(5H)-one]
1310 nM | C[C@H](c1ccc2ncccc2c1)n1nnc2ccn(Cc3ccccc3)c(=O)c21 [Example 32, (R)-5-benzyl-3-(1-(quinolin-6-yl)ethyl)-3H-[1,2,3]triazolo[4,5-c]pyridin-4(5H)-one]
473 nM | C[C@H](c1ccc2ncccc2c1)n1nnc2ccn(-c3ccc(Cl)c(C(F)(F)F)c3)c(=O)c21 [Example 30, (R)-5-(4-chloro-3-(trifluoromethyl)phenyl)-3-(1-(quinolin-6-yl)ethyl)-3H-[1,2,3]triazolo[4,5-c]pyridin-4(5H)-one]
8 nM | Cc1cc(N2CCc3nnn([C@@H](C)c4ccc5ncccc5c4)c3C2=O)sn1 [Example 4, (S)-5-(3-methylisothiazol-5-yl)-3-(1-(quinolin-6-yl)ethyl)-6,7-dihydro-3H-[1,2,3]triazolo[4,5-c]pyridin-4(5H)-one]
366 nM | O=C1c2c(nnn2Cc2ccc3ncccc3c2)CCN1c1ccccc1 [Example 1, 5-phenyl-3-(quinolin-6-ylmethyl)-6,7-dihydro-3H-[1,2,3]triazolo[4,5-c]pyridin-4(5H)-one]
461 nM | CC(c1ccc2ncccc2c1)n1nnc2c(=O)[nH]ccc21 (racemic) [Example 10, (R/S)-1-(1-(quinolin-6-yl)ethyl)-1H-[1,2,3]triazolo[4,5-c]pyridin-4(5H)-one]
132 nM | Cc1cc(N2CCc3nnn([C@H](C)c4ccc5ncccc5c4)c3C2=O)sn1 [Example 5, (R)-5-(3-methylisothiazol-5-yl)-3-(1-(quinolin-6-yl)ethyl)-6,7-dihydro-3H-[1,2,3]triazolo[4,5-c]pyridin-4(5H)-one]
3.4 nM | C[C@@H](c1ccc2ncccc2c1)n1nnc2ccn(-c3ccc(Cl)c(C(F)(F)F)c3)c(=O)c21 [Example 29, (S)-5-(4-chloro-3-(trifluoromethyl)phenyl)-3-(1-(quinolin-6-yl)ethyl)-3H-[1,2,3]triazolo[4,5-c]pyridin-4(5H)-one]
